Experimental findings from patent US7435837B2, “Dihydrobenzofuranyl alkanamine derivatives and methods for using same” (Wyeth, priority 2003, dated 2008) are described below.

In the test the target is T1, human 5-hydroxytryptamine-2C (h5-HT2C) receptor (Homo sapiens, UniProt P28335).
T1 construct: expressed in transfected cells; host or cells: CHO (Chinese Hamster Ovary) cells; membranes
T1 sequence (P28335 33-458): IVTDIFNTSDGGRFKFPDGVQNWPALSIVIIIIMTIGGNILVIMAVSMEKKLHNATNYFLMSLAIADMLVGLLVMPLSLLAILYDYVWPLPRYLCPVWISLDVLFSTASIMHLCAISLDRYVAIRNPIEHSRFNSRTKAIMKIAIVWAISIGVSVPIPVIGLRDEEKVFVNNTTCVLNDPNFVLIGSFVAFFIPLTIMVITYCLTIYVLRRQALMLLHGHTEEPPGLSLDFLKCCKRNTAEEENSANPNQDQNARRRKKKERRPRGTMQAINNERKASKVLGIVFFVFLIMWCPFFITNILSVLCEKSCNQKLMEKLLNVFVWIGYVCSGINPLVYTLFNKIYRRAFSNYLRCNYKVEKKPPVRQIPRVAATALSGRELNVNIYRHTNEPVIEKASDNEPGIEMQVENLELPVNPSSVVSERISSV
Put plainly: [125I]DOI binding to membranes of CHO cells expressing the human 5-HT2C receptor. The note with it: [125I]DOI radioligand, CHO cell membranes, room temperature 60 min; read-out: 5-HT2C Affinity Ki.
With `CNCC1Cc2cc(-c3cccc(Cl)c3)cc(F)c2O1` (racemic) [Example 534, (±)-{7-fluoro-5-[3-chlorophenyl]-2,3-dihydro-1-benzofuran-2-yl}methyl)methylamine], the Ki (commonly the equilibrium dissociation constant of an inhibitor or competing ligand from its target) came to 1050 nM.

Take `CNCC1Cc2cc(-c3ccccc3)cc(-c3ccccc3F)c2O1` (racemic) [Example 508, (±)-{[7-(2-fluorophenyl)-5-phenyl-2,3-dihydro-1-benzofuran-2-yl]methyl}methylamine]: the Ki is 1800 nM. In the case of `Cc1cccc(-c2cc(Cl)cc3c2OC(CN)C3)c1` (racemic) [Example 88, (±)-1-[5-chloro-7-(3-methylphenyl)-2,3-dihydro-1-benzofuran-2-yl]methanamine], the Ki was found to be 48 nM.

For `CNCC1Cc2cc(-c3ccc(C)cc3)cc(F)c2O1` (racemic) [Example 538, (±)-{7-fluoro-5-[4-methylphenyl]-2,3-dihydro-1-benzofuran-2-yl}methyl)methylamine], the Ki stood at 380 nM. For the molecule `CNCC1Cc2cc(-c3cccc(OC)c3)cc(F)c2O1` (racemic) [Example 537, (±)-{7-fluoro-5-[3-methoxyphenyl]-2,3-dihydro-1-benzofuran-2-yl}methyl)methylamine], the Ki amounted to 1690 nM. The same measure for `NCC1Cc2cc(C(F)(F)F)cc(-c3cccc(F)c3F)c2O1` (racemic) [Example 329, (±)-{[7-(2,3-difluorophenyl)-5-(trifluoromethyl)-2,3-dihydro-1-benzofuran-2-yl]methyl}amine]: 87 nM; for `NCC1Cc2cccc(Nc3cccc(C(F)(F)F)c3)c2O1` (racemic) [Example 184, (±)-N-2-(aminomethyl)-N-[3-(trifluoromethyl)phenyl]-2,3-dihydro-1-benzofuran-7-amine]: 185 nM; for `CNCC1Cc2cc(-c3ccc(F)cc3)cc(F)c2O1` (racemic) [Example 540, (±)-{[7-fluoro-5-(4-fluorophenyl)-2,3-dihydro-1-benzofuran-2-yl]methyl}methylamine]: 486 nM.

`Cc1cccc(-c2cc(-c3ccccc3)cc3c2OC(CN)C3)c1` (racemic) [Example 352, (±)-{[7-(3-methylphenyl)-5-phenyl-2,3-dihydro-1-benzofuran-2-yl]methyl}amine]: the inhibition constant Ki was 876 nM. For the molecule `COc1ccc(Nc2cccc3c2OC(CN)C3)cc1C` (racemic) [Example 185, (±)-N-[2-(aminomethyl)-2,3-dihydro-1-benzofuran-7-yl]-N-(4-methoxy-3-methylphenyl)amine], the Ki stood at 159 nM. The figure for `COc1cc2c(c(-c3ccccc3C)c1)OC(CN)C2` (racemic) [Example 358, (±)-{[7-(2-methylphenyl)-5-methoxy-2,3-dihydro-1-benzofuran-2-yl]methyl}amine] is 7 nM. Take `NCC1Cc2cccc(-c3ccccc3)c2O1` (racemic) [Example 36, (±)-1-(7-phenyl-2,3-dihydro-1-benzofuran-2-yl)methanamine]: the Ki came out at 15 nM. Regarding `Cc1ccc(Nc2cccc3c2OC(CN)C3)c(C)c1` (racemic) [Example 180, (±)-N-[2-(aminomethyl)-2,3-dihydro-1-benzofuran-7-yl]-N-(2,4-dimethylphenyl)amine], the Ki came out at 290 nM. The figure for `CNCC1Cc2cc(C(F)(F)F)cc(-c3ccc(F)c(Cl)c3)c2O1` (racemic) [Example 525, (±)-{[7-(3-chloro-4-fluorophenyl)-5-(trifluoromethyl)-2,3-dihydro-1-benzofuran-2-yl]methyl}methylamine] is 559 nM.

`NCC1Cc2c(cccc2-c2ccccc2)O1` (single isomer, unassigned; (-)) [Example 3, (−)-1-(4-phenyl-2,3-dihydro-1-benzofuran-2-yl)methanamine]: the Ki is 204 nM. `NCC1Cc2cccc(-c3cccc(C(F)(F)F)c3)c2O1` (single isomer, unassigned; (-)) [Example 135, (−)-1-{7-[3-(trifluoromethyl)phenyl]-2,3-dihydro-1-benzofuran-2-yl}methanamine]: the Ki was found to be 131 nM. `CNCC1Cc2cc(-c3ccccc3OC)cc(F)c2O1` (racemic) [Example 532, (±)-{7-fluoro-5-[2-methoxyphenyl]-2,3-dihydro-1-benzofuran-2-yl}methyl)methylamine]: the Ki was determined as 3350 nM.

`Cc1cccc(-c2cccc3c2OC(CN)C3)c1` (racemic) [Example 41, (±)-1-[7-(3-methylphenyl)-2,3-dihydro-1-benzofuran-2-yl]methanamine]: the Ki came out at 25 nM. The figure for `NCC1Cc2ccc(-c3ccccc3)cc2O1` (racemic) [Example 31, (±)-(6-phenyl-2,3-dihydro-1-benzofuran-2-yl)methanamine] is 1370 nM; for `NCC1Cc2cc(C(F)(F)F)cc(-c3cccc(Cl)c3)c2O1` (racemic) [Example 320, (±)-{[5-(trifluoromethyl)-7-(3-chlorophenyl)-2,3-dihydro-1-benzofuran-2-yl]methyl}amine] it is 107 nM. The figure for `CN(C)C[C@H]1Cc2cc(F)cc(-c3c(Cl)cccc3Cl)c2O1` [Example 547, (R)-[7-(2,6-dichloro-phenyl)-5-Fluoro-2,3-dihydro-benzofuran-2-ylmethyl]dimethylamine] is 1.8 nM; for `CNCC1Cc2cc(-c3ccccc3)cc(-c3ccccc3Cl)c2O1` (racemic) [Example 505, (±)-{[7-(2-chlorophenyl)-5-phenyl-2,3-dihydro-1-benzofuran-2-yl]methyl}methylamine] it is 371 nM; for `NCC1Cc2cccc(Nc3ccccc3F)c2O1` (racemic) [Example 194, (±)-N-[2-(aminomethyl)-2,3-dihydro-1-benzofuran-7-yl]-N-(2-fluorophenyl)amine] it is 127 nM. The figure for `NCC1Cc2cccc(-c3cc4ccccc4o3)c2O1` (racemic) [Example 40, (±)-1-(2′,3′-dihydro-2,7′-bi-1-benzofuran-2′-yl)methanamine] is 122 nM; for `CNCC1Cc2cc(-c3ccc(OC)cc3)cc(F)c2O1` (racemic) [Example 542, (±)-{7-fluoro-5-[4-methoxyphenyl]-2,3-dihydro-1-benzofuran-2-yl}methyl)methylamine] it is 372 nM. For `N#Cc1ccc(-c2cc(C(F)(F)F)cc3c2OC(CN)C3)cc1` (racemic) [Example 340, (±)-4-[2-(aminomethyl)-5-(trifluoromethyl)-2,3-dihydro-1-benzofuran-7-yl]benzonitrile], the Ki was found to be 88 nM.

For `NCC1Cc2cc(-c3cccc(Cl)c3)cc(F)c2O1` (racemic) [Example 382, (±)-{[7-fluoro-5-(3-chlorophenyl)-2,3-dihydro-1-benzofuran-2-yl]methyl}amine], the Ki is 801 nM. The same measure for `CNCC1Cc2cc(C(F)(F)F)cc(-c3cccc(Cl)c3Cl)c2O1` (racemic) [Example 524, (±)-N-methyl-1-[7-(2,3-dichlorophenyl)-5-(trifluoromethyl)-2,3-dihydro-1-benzofuran-2-yl]methanamine]: 136 nM; for `NCC1Cc2cc(-c3ccccc3)cc(-c3cccc(F)c3)c2O1` (racemic) [Example 349, (±)-{[7-(3-fluorophenyl)-5-phenyl-2,3-dihydro-1-benzofuran-2-yl]methyl}amine]: 760 nM; for `CC(C)(C)c1cccc2c1OC(CN)C2` (racemic) [Example 24, (±)-1-(7-tert-butyl-2,3-dihydro-1-benzofuran-2-yl)methanamine]: 36 nM.
